Results on 15 compounds are retold here after US9115073B2, “1,3-diphenylpropane derivatives, preparations and uses thereof” (GENFIT, priority 2011, dated 2015).

One data set addresses T1, hPPARalpha (Homo sapiens, UniProt Q07869).
T1 construct: Gal4-hPPARα(LBD); Gal4 (fusion partner); expressed in transfected cells; host or cells: COS-7 (monkey kidney)
T1 sequence (Q07869 239-466 limits assumed): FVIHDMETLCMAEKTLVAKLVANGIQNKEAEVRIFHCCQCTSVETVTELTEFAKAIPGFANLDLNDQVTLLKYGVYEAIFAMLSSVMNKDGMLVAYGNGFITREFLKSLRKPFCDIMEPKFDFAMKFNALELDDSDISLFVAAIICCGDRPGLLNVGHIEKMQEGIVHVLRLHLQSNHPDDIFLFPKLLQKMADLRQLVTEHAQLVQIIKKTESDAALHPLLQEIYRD
Briefly: Gal4-hPPARalpha transactivation assay in COS-7 cells (luciferase). The note with it: for EC50: Gal4-hPPARα(LBD) transactivation; for Emax: COS-7, maximal relative activation vs reference, read-out: Gal4-hPPARα(LBD) TOP (% ref); for Gal4-hPPARα(LBD) TOP (% ref): maximal relative activation vs reference. The class given is cell-based. How it is done: (§1) Monkey kidney COS-7 cells were maintained in standard culture conditions (Dulbecco's modified Eagle's minimal medium: DMEM) supplemented with 10% fetal calf serum, 1% sodium pyruvate, 1% essential amino acids and 1% antibiotics at 37° C. in a humidified atmosphere of 5% C02 and 95% air. The medium was changed every 2 days. All tested compounds were dissolved in DMSO. Cells were transfected using 2 μl JetPEI™ (Polyplus transfection)/μg of DNA. Briefly, 40 μg of DNA was transfected in a 225 cm^2 culture flask of adherent COS-7 cells (respecting the 1/50 ratio between the Gal4(RE)_TkpGL3 plasmid and the plasmid coding the nuclear receptor of interest (pGal4-hPPARalpha, pGal4-hPPARgamma, pGal4-hPPARdelta, pGal4-mPPARalpha, pGal4-mPPARgamma and pGal4-mPPARdelta) or of the pGal4phi plasmid (negative control). Cells were enzymatically detached and seeded in 384 well plates at the density of 20,000 cells/well and then incubated for 4 hours at 37° C. The activation was automatically performed, by using the Genesis Freedom 200™ (Tecan), in fresh medium supplemented with 2% of synthetic serum, free of lipids (Ultroser™, Biosepra) supplemented with the tested compounds (compound of interest or reference molecules) or vehicle (DMSO 0.1%). The luciferase activity was measured with the Steady-Glo Luciferase Assay System (Promega, Madison, Wis.). All transactivation experiments were performed at least 2 times. Activation curves were realized using SigmaPlot® (version 7.0 from SPSS Inc.) software and took into account all the experimental points. SimgaPlot® was also used to fit the standard curves and then determine the specific EC50 values, maximum effect versus reference molecules and Hill slope. The Emax effect of each new ligand is represented as the ratio of the maximal induction (plateau) obtained with the new ligand and the induction obtained with the corresponding reference compound. The reference compounds for PPARalpha, PPARgamma and PPARdelta were fenofibrate (100 μM), rosiglitazone (10 μM) and GW501516 (1 μM).

Another data set has as its target T2, hPPARgamma (Homo sapiens, UniProt P37231).
T2 construct: Gal4-hPPARγ(LBD); Gal4 (fusion partner); expressed in transfected cells; host or cells: COS-7 (monkey kidney)
T2 sequence (P37231 238-503 limits assumed): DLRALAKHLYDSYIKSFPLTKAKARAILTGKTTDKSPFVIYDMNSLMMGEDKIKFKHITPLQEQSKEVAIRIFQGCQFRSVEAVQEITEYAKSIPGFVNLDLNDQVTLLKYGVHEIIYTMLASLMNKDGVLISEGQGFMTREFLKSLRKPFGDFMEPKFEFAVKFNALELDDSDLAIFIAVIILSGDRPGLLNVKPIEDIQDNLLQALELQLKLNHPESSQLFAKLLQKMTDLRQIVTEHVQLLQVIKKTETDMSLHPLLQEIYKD
Nature of the data set: Gal4-hPPARgamma transactivation assay in COS-7 cells (luciferase). The class given is cell-based. The conditions noted are these: for EC50: Gal4-hPPARγ(LBD) transactivation; for Emax: COS-7, maximal relative activation vs reference, read-out: Gal4-hPPARγ(LBD) TOP (% ref); for Gal4-hPPARγ(LBD) TOP (% ref): maximal relative activation vs reference. How it is done: as §1

Another data set addresses T3, hPPARdelta (Homo sapiens, UniProt Q03181).
T3 construct: Gal4-hPPARδ(LBD); Gal4 (fusion partner); expressed in transfected cells; host or cells: COS-7 (monkey kidney)
T3 sequence (Q03181 211-439 limits assumed): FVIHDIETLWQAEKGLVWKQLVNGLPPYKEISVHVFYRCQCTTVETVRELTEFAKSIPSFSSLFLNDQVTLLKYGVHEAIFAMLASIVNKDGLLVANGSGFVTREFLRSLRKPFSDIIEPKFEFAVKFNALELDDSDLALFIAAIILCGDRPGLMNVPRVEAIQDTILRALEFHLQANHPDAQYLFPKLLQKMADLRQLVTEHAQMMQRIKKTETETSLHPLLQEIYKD
Nature of the data set: Gal4-hPPARdelta transactivation assay in COS-7 cells (luciferase). The class given is cell-based. The conditions noted are these: for EC50: Gal4-hPPARδ(LBD) transactivation; for Emax: COS-7, maximal relative activation vs reference, read-out: Gal4-hPPARδ(LBD) TOP (% ref); for Gal4-hPPARδ(LBD) TOP (% ref): maximal relative activation vs reference. How it is done:
as §1

SMILES strings stand for the structures. Structures can show the parent of a compound that is named as a salt.

In the case of `COC(c1ccc(OC(F)(F)F)cc1)C1CC1c1cc(C)c(OC(C)(C)C(=O)O)c(C)c1` (single isomer, unassigned) (as salt: TFA) [Cpd 14-1-1, 2-(4-(2-(methoxy(4-(trifluoromethoxy)phenyl)methyl)cyclopropyl)-2,6-dimethylphenoxy)-2-methylpropanoic acid], the melting point (commonly the temperature, or range, at which the solid turns liquid) is 155 to 156 °C.
`COC(c1ccccc1OC(F)(F)F)C1CC1c1cc(C)c(OC(C)(C)C(=O)O)c(C)c1` (single isomer, unassigned) [Cpd 13-2, 2-(4-(2-(methoxy(2-(trifluoromethyloxy)phenyl)methyl)cyclopropyl)-2,6-dimethylphenoxy)-2-methylpropanoic acid]: the EC50 (as a rule, the concentration giving half of the maximal effect) at hPPARalpha came out at 623 nM; on hPPARgamma, 9 nM; at hPPARdelta, 214 nM.
For `COC(c1ccc(C(F)(F)F)cc1F)C1CC1c1cc(C)c(OC(C)(C)C(=O)O)c(C)c1` (single isomer, unassigned) [Cpd 12-1, 2-(4-(2-(methoxy(2-fluoro-4-(trifluoromethyl)phenyl)methyl)cyclopropyl)-2,6-dimethylphenoxy)-2-methylpropanoic acid], the results for the Emax on hPPARalpha, at hPPARgamma and at hPPARdelta were 47%, 71% and 89%, respectively. Moreover, the concentration for a half-maximal effect (EC50) on hPPARalpha is 53 nM; at hPPARgamma, 12 nM; at hPPARdelta, 7 nM.
Take `COC(c1ccc(C)cc1)C1CC1c1cc(C)c(OC(C)(C)C(=O)O)c(C)c1` (racemic) [Cpd 2-1, 2-(4-(2-(methoxy(4-methylphenyl)methyl)cyclopropyl)-2,6-dimethylphenoxy)-2-methylpropanoic acid]: the Emax on hPPARalpha stood at 35%; on hPPARgamma, 72%; on hPPARdelta, 85%. Also, the EC50 was 635 nM on hPPARalpha, 110 nM at hPPARgamma and 152 nM at hPPARdelta.
`Cc1cc(C2CC2C(OCCC2CCCCC2)c2ccc(OC(F)(F)F)cc2)cc(C)c1OC(C)(C)C(=O)O` (racemic) [Cpd 6-1, 2-(4-(2-(cyclohexylethyloxy(4-(trifluoromethoxy)phenyl)methyl)cyclopropyl)-2,6-dimethylphenoxy)-2-methylpropanoic acid]: the Emax at hPPARalpha was 36%; on hPPARgamma, 71%; at hPPARdelta it was 72%. In addition, the EC50 on hPPARalpha was determined as 68 nM; on hPPARgamma it was 94 nM; at hPPARdelta, 100 nM.
Consider `COC(c1ccc(OC(F)(F)F)cc1)C1CC1c1ccc(OC(C)(C)C(=O)O)c(C(C)C)c1` (single isomer, unassigned) [Cpd 15-2, 2-(2-isopropyl-4-(2-(methoxy(4-(trifluoromethoxy)phenyl)methyl)cyclopropyl)phenoxy)-2-methylpropanoic acid], for which the EC50 is 145 nM on hPPARalpha, 46 nM on hPPARgamma and 123 nM at hPPARdelta.
For `Cc1cc(C2CC2C(OCc2ccccc2)c2ccc(OC(F)(F)F)cc2)cc(C)c1OC(C)(C)C(=O)O` (single isomer, unassigned) [Cpd 11-2, 2-(4-(2-(benzyloxy(4-(trifluoromethoxy)phenyl)methyl)cyclopropyl)-2,6-dimethylphenoxy)-2-methylpropanoic acid], in that order: 100 nM, 23 nM and 122 nM.
Turning to `COC(c1ccc(OC(F)(F)F)cc1)C1CC1c1cc(F)c(OC(C)(C)C(=O)O)c(F)c1` (racemic) [Cpd 20-1, 2-(2,6-difluoro-4-(2-(methoxy(4-(trifluoromethoxy)phenyl)methyl)cyclopropyl)phenoxy)-2-methylpropanoic acid], the Emax on hPPARalpha worked out at 50%; at hPPARgamma it was 67%; on hPPARdelta, 84%. The EC50 on hPPARalpha amounted to 143 nM; on hPPARgamma it was 230 nM; on hPPARdelta, 87 nM.
Take `COC(c1ccc(C(F)(F)F)cc1F)C1CC1c1cc(C)c(OC(C)(C)C(=O)O)c(C)c1` (racemic) [Cpd 12-2, 2-(4-(2-(methoxy(2-fluoro-4-(trifluoromethyl)phenyl)methyl)cyclopropyl)-2,6-dimethylphenoxy)-2-methylpropanoic acid]: the “Gal4-hPPARα(LBD) TOP (% ref)” value at hPPARalpha amounted to 37 % ref. At hPPARgamma, the “Gal4-hPPARγ(LBD) TOP (% ref)” value is recorded as 85 % ref. Moreover, at hPPARdelta, the “Gal4-hPPARδ(LBD) TOP (% ref)” value came to 78 % ref.
For `COC(c1ccccc1OC(F)(F)F)C1CC1c1cc(C)c(OC(C)(C)C(=O)O)c(C)c1` (racemic) [Cpd 13-2, 2-(4-(2-(methoxy(2-(trifluoromethyloxy)phenyl)methyl)cyclopropyl)-2,6-dimethylphenoxy)-2-methylpropanoic acid], in that order: 28 % ref, 71 % ref and 57 % ref.
Regarding `CCOC(c1ccc(OC(F)(F)F)cc1)C1CC1c1cc(C)c(OC(C)(C)C(=O)O)c(C)c1` (racemic) [Cpd 10-2, 2-(4-(2-(ethoxy(4-(trifluoromethoxy)phenyl)methyl)cyclopropyl)-2,6-dimethylphenoxy)-2-methylpropanoic acid], on hPPARalpha, a half-maximal response (EC50) required 30 nM and the “Gal4-hPPARα(LBD) TOP (% ref)” value is 43 % ref. Also, the EC50 on hPPARgamma was found to be 39 nM. Further, at hPPARdelta, it took 24 nM to reach a half-maximal effect (EC50) and the “Gal4-hPPARδ(LBD) TOP (% ref)” value came to 73 % ref.
On to `COC(c1ccc(SC)cc1)C1CC1c1cc(C)c(OC(C)(C)C(=O)O)c(C)c1` (single isomer, unassigned) [Cpd 3-2, 2-(4-(2-(methoxy(4-(methylthio)phenyl)methyl)cyclopropyl)-2,6-dimethylphenoxy)-2-methylpropanoic acid], for which the EC50 came to 139 nM at hPPARalpha, 18 nM at hPPARgamma and 169 nM on hPPARdelta.
Take `COC(c1ccc(OC(F)(F)F)cc1)C1CC1c1ccc(OC(C)(C)C(=O)O)c(C(C)C)c1` (racemic) [Cpd 15-2, 2-(2-isopropyl-4-(2-(methoxy(4-(trifluoromethoxy)phenyl)methyl)cyclopropyl)phenoxy)-2-methylpropanoic acid]: the “Gal4-hPPARα(LBD) TOP (% ref)” value at hPPARalpha is listed as 31 % ref. Besides, on hPPARgamma, the “Gal4-hPPARγ(LBD) TOP (% ref)” value was 69 % ref. At hPPARdelta, the “Gal4-hPPARδ(LBD) TOP (% ref)” value is on record as 96 % ref.
Take `COC(c1ccc(SC)cc1)C1CC1c1cc(C)c(OC(C)(C)C(=O)O)c(C)c1` (racemic) [Cpd 3-2, 2-(4-(2-(methoxy(4-(methylthio)phenyl)methyl)cyclopropyl)-2,6-dimethylphenoxy)-2-methylpropanoic acid]: at hPPARalpha, the “Gal4-hPPARα(LBD) TOP (% ref)” value came to 42 % ref. Moreover, the “Gal4-hPPARγ(LBD) TOP (% ref)” value on hPPARgamma stood at 65 % ref. Moreover, on hPPARdelta, the “Gal4-hPPARδ(LBD) TOP (% ref)” value is on record as 75 % ref.
As to `COC(c1ccc(Br)cc1)C1CC1c1cc(C)c(OC(C)(C)C(=O)O)c(C)c1` (racemic) [Cpd 1-2, 2-(4-(2-(methoxy(4-bromophenyl)methyl)cyclopropyl)-2,6-dimethylphenoxy)-2-methylpropanoic acid], at hPPARalpha, a half-maximal response (EC50) required 186 nM and the “Gal4-hPPARα(LBD) TOP (% ref)” value was found to be 33 % ref. Moreover, at hPPARgamma, the EC50 was determined as 19 nM and the “Gal4-hPPARγ(LBD) TOP (% ref)” value worked out at 77 % ref. Further, on hPPARdelta, a half-maximal response (EC50) required 54 nM and the “Gal4-hPPARδ(LBD) TOP (% ref)” value is 83 % ref.
